Laboratory results taken from article PMC4752462 (PLoS ONE, 2016).

Tests used:
CYP3A4 = details: based on the EVG metabolic activity; cited from earlier work
[1] = Sample stability of EVG in the microsomal matrix (bench-top, freeze-thaw, long-term storage); type: physicochemical
Experimental: Accuracy and precision of the method were determined by analyzing QC samples that cover the calibration curve range of the analyte. The low QC concentration was selected to be three times the LLOQ as per the FDA guidelines. Inter-day precision and accuracy were calculated by analyzing extracted calibration standards and three QCs at different concentrations as described in our previous publications. […] Carry-over (memory) effect was determined by assessing the extracted blank immediately after the upper limit of quantification (ULOQ, 1000 ng/ml). Matrix effect (ME), recovery efficiency (RE), and process efficiency (PE) were explored by following a previously proposed methodology. The three sets of samples used for the experiments were as follows: A, pure standard solutions of EVG; B, blank microsomal extraction spiked with pure standard solutions of EVG; C, microsomal samples spiked with pure standard solutions of EVG and extracted at the low, medium, and high QC concentrations. After quantitation of the analyte the parameters were calculated using the following formulae. ME (%) = B/A x 100, RE (%) = C/B x 100, PE (%) = C/A x 100. Furthermore, analyte peak areas were corrected with their respective IS peak areas and reported. Finally, sample stability studies for the EVG in the microsomal matrix was tested using low, medium, and high QCs at the bench-top (25°C) and storage conditions (-80°C). Analyte concentrations in these samples were measured after fresh preparation and at 12, 24, and 48 hours. […] For the long-term storage, samples were analyzed after storing them at the -80°C for three months. All determined concentrations were compared with freshly prepared QCs and reported the variation as a percentage of change from the freshly made QCs. The incurred sample reanalysis was also done by randomly selecting 10% of the total samples analyzed. The obtained data was compared with the first time results of the samples to determine whether the variability is beyond ± 20%.

## COc1cc2c(cc1Cc1cccc(Cl)c1F)c(=O)c(C(=O)O)cn2[C@H](CO)C(C)C [EVG, Elvitegravir]
CYP3A4
  Km: 21.5 µM
[1]; -80°C, 3-4 months, data not shown
  long term storage stability: did not exhibit significant loss in the concentration
[1]; Freeze thaw (-80°C), cycle 1, High QC 3.50 μM
  change from freshly prepared quality controls: -3%
[1]; Freeze thaw (-80°C), cycle 1, Low QC 0.040 μM
  change from freshly prepared quality controls: -12%
[1]; Freeze thaw (-80°C), cycle 1, Medium QC 0.75 μM
  change from freshly prepared quality controls: 5%
[1]; Freeze thaw (-80°C), cycle 2, High QC 3.50 μM
  change from freshly prepared quality controls: 3%
[1]; Freeze thaw (-80°C), cycle 2, Low QC 0.040 μM
  change from freshly prepared quality controls: -7%
[1]; Freeze thaw (-80°C), cycle 2, Medium QC 0.75 μM
  change from freshly prepared quality controls: 3%
[1]; Freeze thaw (-80°C), cycle 3, High QC 3.50 μM
  change from freshly prepared quality controls: -15%
[1]; Freeze thaw (-80°C), cycle 3, Low QC 0.040 μM
  change from freshly prepared quality controls: -3%
[1]; Freeze thaw (-80°C), cycle 3, Medium QC 0.75 μM
  change from freshly prepared quality controls: 5%
[1]; Room Temp (25°C), 0 hours, High QC 3.50 μM
  change from freshly prepared quality controls: 0%
[1]; Room Temp (25°C), 0 hours, Low QC 0.040 μM
  change from freshly prepared quality controls: 0%
[1]; Room Temp (25°C), 0 hours, Medium QC 0.75 μM
  change from freshly prepared quality controls: 0%
[1]; Room Temp (25°C), 12 hours, High QC 3.50 μM
  change from freshly prepared quality controls: 0.1%
[1]; Room Temp (25°C), 12 hours, Low QC 0.040 μM
  change from freshly prepared quality controls: -14%
[1]; Room Temp (25°C), 12 hours, Medium QC 0.75 μM
  change from freshly prepared quality controls: 9%
[1]; Room Temp (25°C), 24 hours, High QC 3.50 μM
  change from freshly prepared quality controls: 1.8%
[1]; Room Temp (25°C), 24 hours, Low QC 0.040 μM
  change from freshly prepared quality controls: -10%
[1]; Room Temp (25°C), 24 hours, Medium QC 0.75 μM
  change from freshly prepared quality controls: 4%
[1]; Room Temp (25°C), 48 hours, High QC 3.50 μM
  change from freshly prepared quality controls: -0.4%
[1]; Room Temp (25°C), 48 hours, Low QC 0.040 μM
  change from freshly prepared quality controls: -5%
[1]; Room Temp (25°C), 48 hours, Medium QC 0.75 μM
  change from freshly prepared quality controls: 7%
[1]; microsomal matrix, over 48 hours
  stability at room temperature: considered stable
[1]; up to 3-4 freeze-thaw cycles
  percentage of variation in the freeze-thaw stability studies: less than 15%
